Measurements reported in patent US20240368125A1, “NOVEL PYRAZINYL-TRIAZOLE COMPOUNDS AS PESTICIDES” (Bayer Aktiengesellschaft, priority 2021, published 2024).

Legend:
Type in all cases: in vivo
[1] = test system: adult cat fleas (Ctenocephalides felis); experiment: Ctenocephalides felis in-vitro contact test, adult cat flea; conditions: Ctenocephalides felis; 1 μg/cm^2 (=100 g/ha), after 48 hours; read-out: efficacy (fleas dead or moribund)
Procedure: Ctenocephalides Felis—In-Vitro Contact Tests Adult Cat Flea
(§1) 9 mg compound is solved in 1 mL acetone and diluted with acetone to the desired concentration. 250 μL of the test solution is filled in 25 mL glass test tubes and homogeneously distributed on the inner walls by rotation and tilting on a shaking device (2 h at 30 rpm). With a compound concentration of 900 ppm, an inner surface of 44.7 cm^2 and a homogeneous distribution, a dose of 5 μg/cm^2 is achieved.
(§2) After the solvent has evaporated, each test tube is filled with 5-10 adult cat fleas (Ctenocephalides felis), closed with a perforated lid and incubated in a lying position at room temperature and relative humidity. After 48 hours efficacy is determined. The fleas are patted on the ground of the tubes and are incubated on a heating plate at 45-50° C. for at most 5 minutes. Immotile or uncoordinated moving fleas, which are not able to escape the heat by climbing upwards, are marked as dead or moribund.
An efficacy of 100% means all fleas are dead or moribund; 0% means no fleas are dead or moribund.

[2] = test system: Rhipicephalus (Boophilus) microplus larvae (strain Parkhurst, resistant against synthetic pyrethroids); experiment: Rhipicephalus (Boophilus) microplus in-vitro contact test, larval cattle tick; conditions: 1 μg/cm^2 (=100 g/ha), after 48 hours; for pest or weed control at 1 µg/cm2: Rhipicephalus microplus, read-out: efficacy (larvae dead or moribund)
Procedure: Rhipicephalus (Boophilus) Microplus—In-Vitro Contact Tests Larval Cattle Tick (Strain Parkhurst, Resistant Against Synthetic Pyrethroids
as §1
After the solvent has evaporated, each test tube is filled with 20-50 cattle tick larvae (Rhipicephalus microplus), closed with a perforated lid and incubated in a horizontal position at 85% relative humidity and 27° C. in an incubator. After 48 hours efficacy is determined. The larvae are patted on the ground of the tubes and negative geotactic behavior is recorded.

[3] = test system: adult brown dog ticks (Rhipicephalus sanguineus); experiment: Rhipicephalus sanguineus in-vitro contact test, adult brown dog ticks; conditions: Rhipicephalus sanguineus; 1 μg/cm^2 (=100 g/ha), after 48 hours; read-out: efficacy (ticks dead or moribund)
Procedure: Rhipicephalus sanguineus—In-Vitro Contact Tests with Adult Brown Dog Ticks
as §1
as §2, with “brown dog ticks (Rhipicephalus sanguineus),” for “cat fleas (Ctenocephalides felis),”, “ticks” for “fleas”, “ticks,” for “fleas,”
An efficacy of 100% means all ticks are dead or moribund; 0% means no ticks are dead or moribund.

[4] = test system: brown planthopper (Nilaparvata lugens); experiment: Nilaparvata lugens spray test; conditions: for mortality at 500 g/ha: Nilaparvata lugens, in Oryza sativa, 96 h; for mortality: 500 g/ha, rice plants, after 4 days
Procedure: Nilaparvata lugens—Spray Test
(§3) Solvent: 78.0 parts by weight of acetone • • 1.5 parts by weight of dimethylformamide
(§4) Emulsifier: alkylarylpolyglycol ether
(§5) To produce a suitable preparation of active compound, 1 part by weight of active compound is mixed with the stated amount of solvents and is diluted with water, containing an emulsifier concentration of 1000 ppm, to the desired concentration. Further test concentrations are prepared by dilution with emulsifier containing water.
Rice plants (Oryza sativa) are sprayed with a preparation of the active ingredient of the desired concentration and the plants are infested with the brown planthopper (Nilaparvata lugens).
After 4 days mortality in % is determined. 100% means all planthoppers have been killed and 0% means none of the planthoppers have been killed.

[5] = test system: green peach aphid (Myzus persicae); experiment: Myzus persicae spray test (MYZUPE); conditions: 120 h; for mortality at 100 g/ha: in Brassica rapa, foliar; for Emax at 4 g/ha / Emax at 20 g/ha / Emax at 100 g/ha: MYZUPE, 5 dat, read-out: % Efficacy; for Emax at 4 g/ha: 4 g ai/ha; for Emax at 20 g/ha: 20 g ai/ha; for Emax at 100 g/ha: 100 g ai/ha
Procedure: Myzus persicae—Spray Test
(§6) Solvent: 78.0 parts by weight acetone • 1.5 parts by weight dimethylformamide
as §4, §5
Chinese cabbage (Brassica pekinensis) leaf disks infected with all instars of the green peach aphid (Myzus persicae), are sprayed with a preparation of the active ingredient of the desired concentration.
After 5 days mortality in % is determined. 100% means all aphids have been killed and 0% means none of the aphids have been killed.
Myzus persicae—Spray Test (MYZUPE
After the specified period of time, mortality in % is determined. 100% means all aphids have been killed and 0% means none of the aphids have been killed.

[6] = test system: fall armyworm larvae (Spodoptera frugiperda); experiment: Spodoptera frugiperda spray test (SPODFR); conditions: 168 h; for mortality at 100 g/ha: in Zea mays
Procedure: Spodoptera frugiperda—Spray Test
as §6, §4, §5
Maize (Zea mays) leaf sections are sprayed with a preparation of the active ingredient of the desired concentration. Once dry, the leaf sections are infested with fall armyworm larvae (Spodoptera frugiperda).
After 7 days mortality in % is determined. 100% means all caterpillars have been killed and 0% means none of the caterpillars have been killed.
Spodoptera frugiperda—Spray Test (SPODFR
After the specified period of time, mortality in % is determined. 100% means all caterpillars have been killed and 0% means none of the caterpillars have been killed.

[7] = test system: larvae of the southern green stink bug (Nezara viridula); experiment: Nezara viridula spray test; conditions: for mortality: 500 g/ha, barley plants, after 4 days; for mortality at 500 g/ha: Nezara viridula, in Hordeum vulgare, 96 h
Procedure: Nezara viridula—Spray Test
as §3, §4
as §5, with “solvent,” for “solvents”, “and the concentrate” for “and”
Barley plants (Hordeum vulgare) are sprayed with a test solution containing the desired concentration of the active ingredient and are infested with larvae of the southern green stink bug (Nezara viridula).
After 4 days mortality in % is determined. 100% means all the stink bugs have been killed; 0% means none of the stink bugs have been killed.

[8] = test system: larvae of the banded cucumber beetle (Diabrotica balteata); experiment: Diabrotica balteata spray test; conditions: 100 g/ha (=32 μg/well), wheat seeds, after 7 days; for pest or weed control at 32 µg/disc, 100 g/ha: Diabrotica balteata, 168 h, read-out: efficacy (seedlings grown)
Procedure: Diabrotica balteata—Spray Test
as §3, §4
as §5, with “solvent,” for “solvents”, “and the concentrate” for “and”
Soaked wheat seeds (Triticum aestivum) are placed in a multiple well plate filled with agar and some water and are incubated for 1 day to germinate (5 seeds per well). The germinated wheat seeds are sprayed with a test solution containing the desired concentration of the active ingredient. Afterwards each unit is infected with 10-20 larvae of the banded cucumber beetle (Diabrotica balteata).
After 7 days efficacy in % is determined. 100% means all the seedlings have grown up like in the untreated, uninfected control; 0% means none of the seedlings have grown.

SMILES	pest or weed control at 1 µg/cm2 [2] [%]	pest or weed control at 1 µg/cm2, 100 g/ha [3] [%]	mortality at 500 g/ha [4] [%]	mortality at 100 g/ha [5] [%]	mortality at 100 g/ha [6] [%]	mortality at 500 g/ha [7] [%]	pest or weed control at 32 µg/disc, 100 g/ha [8] [%]	further results
Cc1nc([C@H](C)NC(=O)c2cc(OC(F)(F)F)cc(C3CC3)c2)n(-c2cnc(C(=O)N(C)C3CC3)cn2)n1 [Example I-032, N-Cyclopropyl-5-(5-{(1S)-1-[3-cyclopropyl-5-(trifluoromethoxy)benzamido]ethyl}-3-methyl-1H-1,2,4-triazol-1-yl)-N-methylpyrazine-2-carboxamide]	100	80	100	90	100	–	–	pest or weed control at 1 µg/cm2 [1]: 100%
Cc1nc([C@H](C)NC(=O)c2cc(C(F)(F)F)cc(S(C)(=O)=O)c2)n(-c2cnc(C(N)=O)cn2)n1 [Example I-051]	–	–	–	–	–	–	–	efficacy (larvae dead or moribund) [2]: 100%; mortality [7]: 90%
C=C(CC)c1ccc(C2C=CC=C2[C@H](C)CC(=C)c2cc(C)cc(C(C)(C)C)c2)cc1 (stereo partly shown) [I-038 Known from WO2019206799, reference compound]	–	–	–	–	–	–	–	Emax at 4 g/ha [5]: 0%; Emax at 20 g/ha [5]: 70%; Emax at 100 g/ha [5]: 100%; Emax at 4 g/ha ([6]; SPODFR, 4 g ai/ha, 7 dat, read-out: % Efficacy): 0%; Emax at 20 g/ha ([6]; SPODFR, 20 g ai/ha, 7 dat, read-out: % Efficacy): 100%; Emax at 100 g/ha ([6]; SPODFR, 100 g ai/ha, 7 dat, read-out: % Efficacy): 100%
C[C@H](NC(=O)c1cc(F)cc(OC(F)(F)F)c1)c1ncnn1-c1cnc(C(N)=O)cn1 [Example I-068]	–	–	–	–	–	–	–	mortality [7]: 90%
Cc1nc([C@H](C)NC(=O)c2cc(OC(F)(F)F)cc(OC(F)(F)F)c2)n(-c2cnc(C(=O)N(C)C3CC3)cn2)n1 [Example I-031]	100	–	90	–	100	–	–	pest or weed control at 1 µg/cm2 [1]: 80%
Cc1nc([C@H](C)NC(=O)c2cc(C(F)(F)F)cc(C(F)(F)F)c2)n(-c2cnc(C(=O)NC3CC3)cn2)n1 [Example I-014]	100	100	100	90	100	90	–	–
C[C@H](NC(=O)c1cc(OC(F)(F)F)cc(OC(F)(F)F)c1)c1ncnn1-c1cnc(C(=O)N(C)C2CC2)cn1 [Example I-026]	100	100	100	–	100	100	100	pest or weed control at 1 µg/cm2 [1]: 100%
Cc1nc([C@H](C)NC(=O)c2cc(OC(F)(F)F)cc(OC(F)(F)F)c2)n(-c2cnc(C(N)=O)cn2)n1 [Example I-033]	–	–	–	–	100	100	100	–
C[C@H](NC(=O)c1cc(OC(F)(F)F)cc(C2(C#N)CC2)c1)c1nc(C2CC2)nn1-c1cnc(C(N)=O)cn1 [Example I-072]	–	–	–	–	–	–	–	efficacy (seedlings grown) [8]: 100%; mortality [4]: 90%; mortality [7]: 90%
CNC(=O)c1cnc(-n2nc(C)nc2[C@H](C)NC(=O)c2cc(OC(F)(F)F)cc(OC(F)(F)F)c2)cn1 [Example I-034]	100	80	–	–	100	100	80	–
C[C@H](NC(=O)c1cc(C(F)F)cc(C(F)F)c1)c1nc(C2CC2)nn1-c1cnc(C(N)=O)cn1 [Example I-071]	–	–	–	–	–	–	–	efficacy (seedlings grown) [8]: 100%; mortality [4]: 90%; mortality [7]: 90%
C[C@H](NC(=O)c1cc(OC(F)(F)F)cc(S(C)(=O)=O)c1)c1ncnn1-c1cnc(C(N)=O)cn1 [Example I-028]	90	–	–	90	100	100	100	–
C[C@H](NC(=O)c1cc(OC(F)(F)F)cc(S(C)(=O)=O)c1)c1ncnn1-c1cnc(C(=O)N(C)C)cn1 [Example I-017]	100	100	100	100	–	100	100	pest or weed control at 1 µg/cm2 [1]: 100%; Emax at 4 g/ha [5]: 70%; Emax at 20 g/ha [5]: 90%; Emax at 100 g/ha [5]: 100%
CNC(=O)c1cnc(-n2nc(C)nc2[C@H](C)NC(=O)c2cc(C(F)(F)F)cc(C(F)(F)F)c2)cn1 [Example I-011]	100	100	–	90	100	100	–	pest or weed control at 1 µg/cm2 [1]: 100%
C[C@H](NC(=O)c1cc(C(F)F)nc(C(F)F)c1)c1nc(C2CC2)nn1-c1cnc(C(N)=O)cn1 [Example I-094, 5-[5-[(1S)-1-[[2,6-bis(difluoromethyl)pyridine-4-carbonyl]amino]ethyl]-3-cyclopropyl-1,2,4-triazol-1-yl]pyrazine-2-carboxamide]	–	–	–	–	83	100	100	–
Cc1nc([C@H](C)NC(=O)c2cc(F)cc(OC(F)(F)F)c2)n(-c2cnc(C(N)=O)cn2)n1 [Example I-069]	–	–	–	–	–	–	–	mortality [4]: 90%
C[C@H](NC(=O)c1cc(OC(F)(F)F)cc(S(C)(=O)=O)c1)c1ncnn1-c1cnc(C(=O)NC2CC2)cn1 [Example I-020]	100	–	100	100	–	100	100	–
Cc1nc([C@H](C)NC(=O)c2cc(C(F)(F)F)cc(C(F)(F)F)c2)n(-c2cnc(C(N)=O)cn2)n1 [Example I-012]	100	100	100	100	100	100	–	–
